Results taken from US10633338B2, “Binding Function 3 (BF3) site compounds as therapeutics and methods for their use” (THE UNIVERSITY OF BRITISH COLUMBIA, priority 2014, dated 2020).
Like-named read-outs stand apart in the source and are kept apart here.

Columns and labels:
[1] = target: T1, androgen receptor (AR) (Homo sapiens, UniProt P10275, T878A); assay: eGFP cellular AR transcription assay; type: cell-based
T1 construct: stably transfected eGFP-expressing LNCaP human prostate cancer cells (LN-ARR2PB-eGFP) containing an androgen responsive probasin-derived promoter; endogenous in cells; host or cells: LNCaP (LN-ARR2PB-eGFP)
T1 sequence (P10275 1-920 T878A): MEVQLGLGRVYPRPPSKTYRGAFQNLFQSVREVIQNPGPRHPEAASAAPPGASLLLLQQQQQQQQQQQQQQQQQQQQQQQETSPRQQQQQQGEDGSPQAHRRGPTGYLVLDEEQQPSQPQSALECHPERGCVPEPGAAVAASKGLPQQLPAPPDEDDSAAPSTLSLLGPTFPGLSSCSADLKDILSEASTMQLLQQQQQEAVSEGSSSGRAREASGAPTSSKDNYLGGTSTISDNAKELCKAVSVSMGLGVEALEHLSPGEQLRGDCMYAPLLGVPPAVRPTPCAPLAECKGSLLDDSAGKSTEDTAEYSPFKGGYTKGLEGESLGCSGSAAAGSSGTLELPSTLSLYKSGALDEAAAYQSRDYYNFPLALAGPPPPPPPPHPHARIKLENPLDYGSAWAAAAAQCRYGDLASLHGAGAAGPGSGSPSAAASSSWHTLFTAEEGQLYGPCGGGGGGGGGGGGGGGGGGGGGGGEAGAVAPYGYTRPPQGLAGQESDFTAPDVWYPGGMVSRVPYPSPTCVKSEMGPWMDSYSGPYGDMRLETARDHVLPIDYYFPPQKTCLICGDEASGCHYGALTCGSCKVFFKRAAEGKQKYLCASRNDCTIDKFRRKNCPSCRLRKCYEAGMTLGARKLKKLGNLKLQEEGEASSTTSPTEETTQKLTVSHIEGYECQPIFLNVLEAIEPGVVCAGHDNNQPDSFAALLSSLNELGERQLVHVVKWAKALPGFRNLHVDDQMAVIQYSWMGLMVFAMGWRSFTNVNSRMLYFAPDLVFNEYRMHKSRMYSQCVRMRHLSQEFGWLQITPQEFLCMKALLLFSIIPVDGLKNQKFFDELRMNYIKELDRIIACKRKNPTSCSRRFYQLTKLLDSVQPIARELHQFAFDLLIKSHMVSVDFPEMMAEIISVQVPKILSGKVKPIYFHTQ
Method in brief: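 AR transcriptional activity is read as eGFP expression from a probasin-derived androgen-responsive promoter. Compound titrated 0-100 μM in the presence of 0.1 nM R1881; 35,000 cells/well.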

[2] = test system: PSA; assay: Prostate Surface Antigen (PSA) assay, PSA excreted into the media; type: cell-based, human; settings: same plates as eGFP assay; for IC50: Homo sapiens, 72 h
Procedure: The evaluation of PSA excreted into the media was performed in parallel to the eGFP assay using the same plates (see above description). After the cells were incubated for 3 days 150 μl of the media was taken from each well, and added to 150 μl of PBS.

[3] = PSA excreted into media, 3 days incubation, read-out: PSA IC50
[4] = LN-ARR2PBeGFP LNCaP cells, 0.1 nM R1881, 3 days incubation
[5] = PSA excreted into media, 3 days incubation
[6] = LN-ARR2PBeGFP LNCaP cells, 0.1 nM R1881, 3 days incubation, read-out: eGFP IC50
[7] = LN-ARR2PB-eGFP LNCaP cells, 0.1 nM R1881, 3 days, 0-100 μM compound, read-out: IC50 (eGFP)
[8] = media after 3 days, read-out: IC50 (PSA)

IC50 [2, 3] [nM]	IC50 [1, 6] [nM]	Structure (SMILES)	eGFP IC50 [1, 4]	PSA IC50 [2, 5]	further results
		O=C(O)c1cccc2nc(-c3c[nH]c4c(Cl)cc(F)cc34)ccc12 [Compound 13673]	Inactive	Inactive	
1650	2700	Cc1cc(Cl)cc2c(-c3ccc4ccccc4n3)c[nH]c12 [Compound 13626]			
		Cc1cc(F)cc2c(-c3ccc4c(Cl)cccc4n3)c[nH]c12 [Compound 13709]	Inactive	Inactive	
		Cc1cccc2c(-c3ccc4c(Cl)cccc4n3)c[nH]c12 [Compound 13605]	Inactive	Inactive	
680	620	COC(=O)c1cccc2c(-c3ccc(Br)cc3)c[nH]c12 [Compound 13736]			
		Clc1cccc2nc(-c3c[nH]c4ccccc34)ccc12 [Compound 13706]	Inactive	Inactive	
		Cc1cc(Cl)c2[nH]ccc2c1 [Compound 13724]	Inactive	Inactive	
		NC(=O)c1cccc2nc(-c3c[nH]c4c(Cl)cc(F)cc34)ccc12 [Compound 13746]	Inactive	Inactive	
90	200	CNC(=O)c1cccc2nc(-c3c[nH]c4c(C)c(F)c(F)cc34)ccc12 [Compound 13771]			
2120	1600	Cn1cc(-c2cc3ccccc3n2C)c2ccccc21 [Compound 13166]			
1200	1100	Cc1ccc(/N=N/c2c[nH]c3ccccc23)c(C)c1 [Compound 13423]			
172	200	Fc1ccc2ccc(-c3c[nH]c4c(F)c(F)c(F)cc34)nc2c1 [Compound 13772]			
		Cc1ccc2ccc(Cl)nc2c1 [Compound 13727]	Inactive	Inactive	
		Fc1ccc2ccc(Cl)nc2c1 [Compound 13728]	Inactive	Inactive	
3100	2600	COc1ccc2[nH]c(-c3c[nH]c4ccccc34)cc2c1 [Compound 13509]			
		c1ccc2nc(-c3c[nH]c4cnccc34)ccc2c1 [13 583]			IC50 [1, 7]: 1100 nM; IC50 [2, 8]: 930 nM
		Oc1cccc2c(C3Nc4ccccc4C34CCCCC4)c[nH]c12 (stereo not shown) [13 552]			IC50 [1, 7]: 1100 nM; IC50 [2, 8]: 1140 nM
		Fc1ccc2c(-c3ccc4c(C(F)(F)F)cccc4n3)c[nH]c2c1F [Compound 13617]	Inactive	Inactive	
42	42	CNC(=O)c1cccc2nc(-c3c[nH]c4c(F)cc(F)cc34)ccc12 [Compound 13696]			
470	470	CNC(=O)c1ccc(Cl)c2nc(-c3c[nH]c4c(F)c(F)c(F)cc34)ccc12 [Compound 13755]			
2100	1600	CC1(C)c2ccccc2NC1c1c[nH]c2c(CO)cccc12 (stereo not shown) [Compound 13558]			
		O=C(O)c1cccc2nc(-c3c[nH]c4c(F)cc(F)cc34)ccc12 [Compound 13666]	Inactive	Inactive	
		Fc1cc2c(-c3ccc4c(Cl)cccc4n3)c[nH]c2c(F)c1F [Compound 13750]	Inactive	Inactive	
1140	1130	Oc1cccc2c(C3Nc4ccccc4C34CCCCC4)c[nH]c12 (stereo not shown) [Compound 13552]			
		N#Cc1cc(-c2c[nH]c3cc(F)c(F)cc23)nc2ccccc12 [Compound 13664]	Inactive	Inactive	
		c1ccc2nc(-c3n[nH]c4ccccc34)ccc2c1 [Compound 13663]	Inactive	Inactive	
169	350	Cc1cc(F)cc2c(-c3ccc4ccc(F)cc4n3)n[nH]c12 [Compound 13704]			
339	633	Cc1cccc2c(-c3ncc4ccccc4n3)c[nH]c12 [Compound 13603]			

Structure (SMILES)	IC50 [2, 3] [nM]	IC50 [1, 6] [nM]	eGFP IC50 [1, 4]	PSA IC50 [2, 5]	further results
c1ccc2nc(-c3n[nH]c4ccccc34)ccc2c1 [Compound 13579]	43				IC50 ([1]; eGFP IC50, LN-ARR2PBeGFP LNCaP cells, 0.1 nM R1881, 3 days incubation): 101 nM
